# Laboratory results from patent US7618978B2, “Amides as BACE inhibitors” (Eli Lilly and Company, priority 2004, dated 2009).
# Counter-ions that a name gives are not always drawn.
# How the values were obtained:
# [1] = biological target: T1, human BACE1(1-460):Fc (Homo sapiens, UniProt P56817); assay: BACE1 mcaFRET Assay; assay type: biochemical; settings: FRET substrate 15 micromolar, pH 4.6, 16 to 24 hours at room temperature
# T1 construct: made in house; host or cells: HEK293 cells, transient transfection, conditioned medium
# T1 sequence (P56817 22-460): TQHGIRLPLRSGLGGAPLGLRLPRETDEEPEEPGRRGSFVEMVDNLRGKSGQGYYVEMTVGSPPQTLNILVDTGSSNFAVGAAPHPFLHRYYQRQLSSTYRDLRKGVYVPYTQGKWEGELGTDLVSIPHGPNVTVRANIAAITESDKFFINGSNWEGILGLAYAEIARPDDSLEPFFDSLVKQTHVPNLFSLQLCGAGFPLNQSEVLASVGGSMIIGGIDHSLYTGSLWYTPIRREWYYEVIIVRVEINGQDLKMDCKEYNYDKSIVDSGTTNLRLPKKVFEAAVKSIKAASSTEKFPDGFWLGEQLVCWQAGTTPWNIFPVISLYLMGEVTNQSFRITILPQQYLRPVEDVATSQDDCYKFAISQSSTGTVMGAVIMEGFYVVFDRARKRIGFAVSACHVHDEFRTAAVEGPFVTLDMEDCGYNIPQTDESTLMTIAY
# Experimental: (§1) For in vitro enzymatic and cellular assays, test compounds are prepared in DMSO to make up a 10 millimolar stock solution. The stock solution is serially diluted (in a 1:3, 1:2.5, 1:2, or 1:1 dilution series) in DMSO to obtain a final compound concentration of 10 millimolar to 1 micromolar at the first highest concentration of a ten-point dilution curve in a 96-well round-bottom plate right before conducting the in vitro enzymatic and whole assays.
# Serial dilutions of test compounds are prepared as described above. Two microliter of each dilution is added to each well on row A to H of a corresponding low protein binding black plate to which 50 microliter of 50 millimolar ammonium acetate, pH 4.6, 1 mM Triton X-100, 1 mg/ml Bovine Serum Albumin, and 15 micromolar of FRET substrate (sequence: (MCA)-S-E-V-N-L-D-A-E-F-R-K(Dnp)-R-R-R-R-NH2) for BACE1 activity are pre-added. The content is mixed well on a plate shaker for 10 min. Fifty microliter of two hundred picomolar human BACE1(1-460):Fc (See: Vasser, et al., Science, 286, 735-741 (1999)) in the same reaction buffer described above is added to the plate containing substrate and test compounds to initiate the reaction. The relative fluorescence unit (RFU) of the mixture at time 0 is recorded at excitation wavelength 330 nm and emission wavelength 400 nm, after brief mixing on a plate shaker. The reaction plate is covered with aluminum foil and kept in a dark humidified oven at room temperature for 16 to 24 hours. The RFU at the end of incubation is recorded with the same excitation and emission setting. The difference of the RFU at time 0 and the end of incubation represents the activity of BACE1 under the compound-treatment. The 10-point inhibition curve was plotted and fitted with the four-parameter logistic equation to obtain the EC50 and IC50 values. (See: Sinha, et al., Nature, 402, 537-540 (2000)). […] Data for selected compounds of the invention tested in this assay are contained in the following table.
# Both human (accession number: AF190725) and murine (accession number: NM_011792) BACE1 were cloned from total brain cDNA by […]. The nucleotide sequences corresponding to amino acid sequences #1 to 460 were inserted into the cDNA encoding human IgG1 (Fc) polypeptide (Vassar et al. 1999). This fusion protein of BACE1(1-460) and human Fc, named huBACE1:Fc, was constructed into the pJB02 vector. Human BACE1(1-460):Fc (huBACE1:Fc) and murine BACE1(1-460):Fc (muBACE1:Fc) were transiently expressed in HEK293 cells. 250 μg cDNA of each construct was mixed with Fugene 6 and added to 1 liter HEK293 cells. Four days after the transfection, conditioned media were harvested for purification. Purification of huBACE1:Fc and muBACE1:Fc.
# Conditioned media of […] cell transiently transfected with huBACE1:Fc or muBACE1:Fc cDNA were collected. Cell debris was removed by filtering the conditioned media through 0.22 μm sterile filter. 5 ml Protein A-agarose (bed volume) was added to 4 liter conditioned media. This mixture was gently stirred overnight at […]. The Protein A-agarose resin was collected and packed into a low-pressure chromatography column. The column was washed with 20× bed volumes of PBS at flow rate 20 ml per hour. Bound huBACE1:Fc or muBACE1:Fc protein was eluted with 50 mM acetic acid, pH 3.6, at flow rate 20 ml per hour. […] The purity of final product was assessed by electrophoresis in 4-20% Tris-Glycine SDS-PAGE. […]
# [2] = biological target: T2, beta-secretase activity (Homo sapiens, UniProt P56817); assay: Whole Cell Assay for Measuring the Inhibition of Beta-Secretase Activity; assay type: cell-based; settings: HEK293/APP751sw or HEK293/APP751wt cells, 4 to 6 hours at 37C, Abeta, sAPPbeta-lowering effect by sandwich ELISA
# T2 construct: endogenous in cells; host or cells: HEK293p (ATCC CRL-1573) stably expressing human APP751sw or APP751wt
# T2 sequence (P56817 46-501): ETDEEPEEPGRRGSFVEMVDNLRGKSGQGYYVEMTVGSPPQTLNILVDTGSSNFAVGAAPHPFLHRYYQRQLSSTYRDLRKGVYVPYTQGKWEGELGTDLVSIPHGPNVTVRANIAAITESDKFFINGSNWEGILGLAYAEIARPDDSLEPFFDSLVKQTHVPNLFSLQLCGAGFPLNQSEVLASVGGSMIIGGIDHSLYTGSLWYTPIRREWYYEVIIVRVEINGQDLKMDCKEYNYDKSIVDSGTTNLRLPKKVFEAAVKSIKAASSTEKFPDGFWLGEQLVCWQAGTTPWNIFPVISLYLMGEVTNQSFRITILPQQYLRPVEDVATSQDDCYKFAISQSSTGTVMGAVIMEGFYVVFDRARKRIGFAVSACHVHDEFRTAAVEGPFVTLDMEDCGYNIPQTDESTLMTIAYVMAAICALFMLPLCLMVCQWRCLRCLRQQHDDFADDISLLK
# Experimental: as §1
# The routine whole cell assay for the measurement of inhibition of beta-secretase activity utilizes the human embryonic kidney cell line HEK293p (ATCC Accession No. CRL-1573) stably expressing a human APP751 cDNA containing the naturally occurring double mutation […] to Asn651Leu652, commonly called the Swedish mutation (noted HEK293/APP751sw) and shown to overproduce Abeta (Citron et al., 1992, Nature 360:672-674). Human embryonic kidney HEK293p cells stably expressing wild-type human APP751 cDNA (noted HEK293/APP751wt) are also used to assess the inhibition of beta-secretase activity. In vitro Aβ reduction assays have been described in the literature (See: Dovey, et al., Journal of Neurochemistry, 76, 173-181 (2001); Seubert, et al., Nature, 361, 260 (1993); and Johnson-Wood, et al., Proc. Natl. Acad. Sci. USA, 94, 1550-1555 (1997))
# Cells (HEK293/APP751sw or HEK293/APP751wt, at 3×10^4 cells/well, containing 200 microliters culture media, DMEM containing 10% FBS) are incubated at 37C for 4 to 6 hours in the presence/absence of inhibitors (diluted in DMSO) at the desired concentration. At the end of the incubation, conditioned media are analyzed for beta-secretase activity, for example, by analysis of cleavage fragments, Abeta peptide and sAPPbeta. Abeta peptides are measured by a sandwich ELISA, using monoclonal 266 as a capture antibody and biotinylated 3D6 as reporting antibody. The sAPPbeta fragments are analyzed by a sandwich ELISA, using monoclonal 8E5 antibody as a capture antibody and rabbit polyclonal 192sw or 192wt as a reporting antibody. Note that sAPPbeta is the cleavage product of full length APP by BACE 1. The concentration of sAPPbeta released in the conditioned media following the compound treatment corresponds to the activity of BACE1 under such conditions. The 10-point inhibition curve was plotted and fitted with the four-parameter logistic equation to obtain the EC50 and IC50 values for the Abeta, sAPPbeta-lowering effect. Data for selected compounds of the invention tested in this assay are contained in the following table.
SMILES,IC50 [1] [µM],IC50 [2] [µM]
"CC(=O)N[C@@H](Cc1cc(F)cc(F)c1)[C@H](O)[C@H]1CC[C@@H](OCCC(C)C)CN1 [Example 55, N-(1S, 2R)-{1-(3,5-Difluoro-benzyl)-2-hydroxy-2-[(5R,2R)-5-(3-methyl-butoxy)-piperidin-2-yl]-ethyl}-acetamide hydrochloride]",6.9,6.1
"CC(=O)NC(Cc1cc(F)cc(F)c1)C(O)C1CCC(OCc2ccccc2)CN1 [Example 19, N-{(1S,2R)-2-[(5R,2R)-5-Benzyloxy-2-piperidin-2-yl]-1-(3,5-difluoro-benzyl)-2-hydroxy-ethyl}-acetamide hydrochloride]",13.1,17.1
"CC(=O)N[C@@H](Cc1cc(F)cc(F)c1)[C@H](O)[C@H]1CC[C@@H](OCC(C)C)CN1 [Example 58, N-(1S,2R)-{1-(3,5-Difluoro-benzyl)-2-hydroxy-2-[(5R,2R)-5-isobutoxy-piperidin-2-yl]-ethyl}-acetamide hydrochloride]",6.8,–

# Results, then the compound that gave them:
IC50 [1] [µM],IC50 [2] [µM],SMILES
0.001,0.041,"CCC(C)Nc1cc(C(=O)NC(Cc2ccccc2)C(O)C2NCCN(C)C2=O)cc(N(C)S(C)(=O)=O)n1 [Example 3, N-[1-(S)-Benzyl-2-hydroxy-2-(4-methyl-3-oxopiperazin-2-yl)-ethyl]-2-(S)-sec-butylamino-6-(methylsulfonyl-methylamino)-isonicotinamide hydrochloride]"
0.003,0.045,"CCC(C)Nc1cc(C(=O)N[C@@H](Cc2ccccc2)[C@@H](O)[C@H]2CN(C(C)=O)CCN2)cc(N(C)S(C)(=O)=O)n1 (stereo partly drawn) [Example 7, N-[(1S,2R)-2-(R)-(4-Acetylpiperazin-2-yl)-1-benzyl-2-hydroxyethyl]-2-sec-butylamino-6-(methanesulfonyl-methylamino)-isonicotinamide hydrochloride]"
